These results are taken from ChEMBL document CHEMBL1944620, “Discovery of non-oxime reactivators using an in silico pharmacophore model of oxime reactivators of OP-inhibited acetylcholinesterase” (Eur J Med Chem, 2012).

Test [1] relates to Anguilliformes. Briefly: Reactivation of DFP-inhibited eel AChE assessed as reactivation efficacy by spectrophotometry.
In test [2] the test system is Anguilliformes. Briefly: Reactivation of DFP-inhibited eel AChE by spectrophotometry relative to 2-PAM.

Where only a bound is given, the exact number is not on record here.

In the case of `O=[N+]([O-])c1ccc(OCC(O)CNCCNc2nccc(C(F)(F)F)n2)cc1` (centres undefined), the Activity in test [1] was 212 mmol⁻¹ min⁻¹. On to `OC(CNCCNc1nccc(C(F)(F)F)n1)Cn1ccc2ccccc21` (centres undefined), for which, in test [1], the Activity is 57 mmol⁻¹ min⁻¹.

With `COc1cc(/C=N/NC(=O)c2ccc(N)cc2)cc(Br)c1OCc1ccccc1Cl`, the Activity in test [1] was 214 mmol⁻¹ min⁻¹. In the case of `O=[N+]([O-])c1ccc(N2CCCN(C(=S)Nc3ccc(F)cc3Br)CC2)nc1`, in test [1], the Activity was 10.7 mmol⁻¹ min⁻¹. The Ratio in test [2] was less than 10. In the case of `OC(CNCCNc1ccc(C(F)(F)F)cn1)CSc1ccc(F)cc1` (centres undefined), in test [1], the Activity came to 71.6 mmol⁻¹ min⁻¹. For the compound `COc1cc(/C=N/NC(=O)c2cnc3ccccc3c2)cc(Br)c1OCc1ccccc1Cl`, the Activity in test [1] worked out at 13 mmol⁻¹ min⁻¹. The Ratio in test [2] was less than 10. Take `OC(COc1ccc(Cl)c(Cl)c1)CN1CCN(c2nc3ccc(Cl)cc3s2)CC1` (centres undefined): the Activity in test [1] was 25.1 mmol⁻¹ min⁻¹.

In the case of `COc1cc(C(=O)Oc2c(Br)cc(Br)cc2/C=N/NC(=O)C(O)(c2ccccc2)c2ccccc2)cc(OC)c1OC`, the Activity in test [1] was determined as 39.9 mmol⁻¹ min⁻¹. On the same count and under the same terms, under `FC(F)(F)c1ccnc(Oc2ccc(/C=N/NC(=S)Nc3cc(Cl)ccc3Cl)cc2)n1` stands 53.6 mmol⁻¹ min⁻¹. Still for that read-out and setting: next, `COc1ccc(C2NCCc3c2[nH]c2ccc(OCc4ccccc4)cc32)cc1COc1c(Br)cc(Br)cc1Br` (centres undefined): 102 mmol⁻¹ min⁻¹.

For `O=C1CCC(=O)N1c1ccc(S(=O)(=O)N2CCN(c3nccc(C(F)(F)F)n3)CC2)cc1`, in test [1], the Activity was 48.4 mmol⁻¹ min⁻¹. As for `OC(CNCCNc1nccc(C(F)(F)F)n1)COc1ccccc1` (centres undefined), in test [1], the Activity turned out to be 26.3 mmol⁻¹ min⁻¹. For the compound `Cc1ccc(S(=O)(=O)NC(=O)NCCCNC(=O)OC(C)(C)C)cc1`, the Activity in test [1] is 76 mmol⁻¹ min⁻¹. As for `OC(CNCCNc1nccc(C(F)(F)F)n1)CSc1ccccc1` (centres undefined), in test [1], the Activity is 91.1 mmol⁻¹ min⁻¹. Take `FC(F)(F)c1ccnc(NCCNC(=S)NCc2ccco2)n1`: in test [1], the Activity turned out to be 11 mmol⁻¹ min⁻¹. Besides, the Ratio in test [2] is less than 10. `O=C(Nc1ccc(Cl)cc1)N1CCCN(c2ccc(C(F)(F)F)cc2[N+](=O)[O-])CC1`: the Activity in test [1] came to 101 mmol⁻¹ min⁻¹. Consider `Cc1cc(C)cc(NC(=O)N2CCCN(c3ncccc3[N+](=O)[O-])CC2)c1`, for which the Activity in test [1] was found to be 77.2 mmol⁻¹ min⁻¹. For `CCOC(=O)c1cc(C#N)c(C)nc1N1CCN(S(=O)(=O)c2ccccc2)CC1`, the Activity in test [1] worked out at 24.7 mmol⁻¹ min⁻¹. `COc1cc(/C=N/NC(=O)c2ccccc2NC(C)=O)cc(Br)c1OCc1ccccc1Cl`: the Activity in test [1] was determined as 33.1 mmol⁻¹ min⁻¹.

As for `Cc1nc(-c2ccccn2)nc(N2CCN(CCO)CC2)c1Cl`, in test [1], the Activity amounted to 13.9 mmol⁻¹ min⁻¹. The Ratio in test [2] was less than 10. On to `COc1cccc(C(=O)Oc2c(Br)cc(Br)cc2/C=N/NC(=O)CNC(=O)c2ccc(OC)c(OC)c2)c1`, for which the Activity in test [1] worked out at 56.2 mmol⁻¹ min⁻¹.

Regarding `CC(C)(C)OC(=O)N1CCCN(C(=S)Nc2ccccc2N2CCOCC2)CC1`, the Activity in test [1] was 65.9 mmol⁻¹ min⁻¹. On to `O=C(Nc1cc(F)cc(F)c1)N1CCCN(c2ncc(C(F)(F)F)cc2Cl)CC1`, for which the Activity in test [1] stood at 80.7 mmol⁻¹ min⁻¹. On to `OC(CNCCNc1nccc(C(F)(F)F)n1)COc1ccc(Cl)c(Cl)c1` (centres undefined), for which the Activity in test [1] was found to be 75.2 mmol⁻¹ min⁻¹. Still for that read-out and setting: next, `C[n+]1ccccc1C=NO`: 2.61 mmol⁻¹ min⁻¹; `OC(CNCCNc1nccc(C(F)(F)F)n1)COc1ccc(OC(F)(F)F)cc1` (centres undefined): 34.4 mmol⁻¹ min⁻¹. On to `S=C(NC1CCCCCCC1)N1CCCN(c2nc3ccc(Cl)cc3s2)CC1`, for which the Activity in test [1] came out at 26.7 mmol⁻¹ min⁻¹. Turning to `OC(CNCCNc1nccc(C(F)(F)F)n1)COc1cccc(C(F)(F)F)c1` (centres undefined), the Activity in test [1] was 38 mmol⁻¹ min⁻¹. For `OC(CNCCNc1nccc(C(F)(F)F)n1)CSc1ccc(F)cc1` (centres undefined), in test [1], the Activity was determined as 30.2 mmol⁻¹ min⁻¹. With `CCOC(=O)c1cc(-c2nc(C(=O)NN)cs2)c(C)nc1C(F)(F)F`, in test [1], the Activity amounted to 156 mmol⁻¹ min⁻¹. On the same count and under the same terms, next, `OC1CCN(CC(O)COc2ccc(Cl)c(Cl)c2)CC1` (centres undefined): 34.3 mmol⁻¹ min⁻¹.

For the compound `COc1ccc(/C=C(/NC(=O)c2ccccc2)C(=O)N/N=C\c2cc(Br)c(OCc3ccccc3Cl)c(OC)c2)cc1`, in test [1], the Activity is 673 mmol⁻¹ min⁻¹. As to `COc1ccc(CCNCC(O)Cn2ccc3ccccc32)cc1OC` (centres undefined), in test [1], the Activity is 79.6 mmol⁻¹ min⁻¹. As for `CC(CO)(CO)NCC(O)COc1ccc(OC(F)(F)F)cc1` (centres undefined), the Activity in test [1] was found to be 73 mmol⁻¹ min⁻¹. Turning to `OC(CNCCNc1ccc(C(F)(F)F)cn1)COc1ccccc1` (centres undefined), in test [1], the Activity was determined as 20.6 mmol⁻¹ min⁻¹.
